# Values of other authors in US7553503B2, “Phyto-nutraceutical synergistic composition for Parkinson's Disease” (priority 2006, dated 2009).
# Legend:
# mouse brain = conditions: pretreatment
# [1] = system: brain mitochondria and membranes
# [2] = system: patients with early-stage Parkinson's disease
# dopamine D1 receptors = dopamine D1 receptors (Homo sapiens, UniProt P21728)
# dopamine D2 receptors = dopamine D2 receptors (Homo sapiens, UniProt P14416)
# [3] = system: alpha 1-adrenergic receptors
# [4] = system: alpha 2-adrenergic receptors
# [5] = system: dopamine and DOPAC in striatum, DA in hypothalamus; conditions: after administration
# ischemic brain injury = conditions: transient focal ischemia
# [6] = system: HIV-1 viral long terminal repeat-directed gene expression
# [7] = system: patients with tardive dyskinesia; conditions: especially tardive dyskinesia for 5 years or less
# substantia nigra neurons = conditions: MPTP-induced
# [8] = system: bacterial resistance mechanism (multidrug pump); conditions: in vitro, with 5'-methoxyhydnocarpin
# dopamine D1 receptors, sequence (P21728 whole entry): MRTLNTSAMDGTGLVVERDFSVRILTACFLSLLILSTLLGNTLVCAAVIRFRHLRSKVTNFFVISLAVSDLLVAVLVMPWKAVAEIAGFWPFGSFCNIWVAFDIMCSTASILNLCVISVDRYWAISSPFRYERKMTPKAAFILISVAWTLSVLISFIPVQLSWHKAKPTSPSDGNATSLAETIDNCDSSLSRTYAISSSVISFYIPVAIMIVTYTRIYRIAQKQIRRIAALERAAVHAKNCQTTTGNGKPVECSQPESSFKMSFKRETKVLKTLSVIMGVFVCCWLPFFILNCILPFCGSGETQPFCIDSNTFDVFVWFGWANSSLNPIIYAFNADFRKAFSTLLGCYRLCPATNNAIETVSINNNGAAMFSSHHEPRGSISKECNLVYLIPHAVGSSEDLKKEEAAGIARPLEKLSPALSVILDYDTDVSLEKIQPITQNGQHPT
# dopamine D2 receptors, sequence (P14416 whole entry): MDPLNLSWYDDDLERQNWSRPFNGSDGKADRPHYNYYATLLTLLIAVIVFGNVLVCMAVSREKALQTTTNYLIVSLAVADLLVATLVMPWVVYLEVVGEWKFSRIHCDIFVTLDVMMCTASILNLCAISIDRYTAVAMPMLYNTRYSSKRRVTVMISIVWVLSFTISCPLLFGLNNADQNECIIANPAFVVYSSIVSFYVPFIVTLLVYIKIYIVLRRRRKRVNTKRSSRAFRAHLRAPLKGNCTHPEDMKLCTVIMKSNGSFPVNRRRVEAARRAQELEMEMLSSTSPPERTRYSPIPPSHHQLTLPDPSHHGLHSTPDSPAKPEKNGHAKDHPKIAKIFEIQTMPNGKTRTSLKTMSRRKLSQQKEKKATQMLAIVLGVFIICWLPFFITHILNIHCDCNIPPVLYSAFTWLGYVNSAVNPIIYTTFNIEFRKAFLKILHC
compound,measurement,setting,value
COc1cc2c(c(OC)c1OC)-c1c(cc3c(c1OC)OCO3)CC(C)C(C)C2 (stereo not drawn) [Schizandrins B],extent of lipid peroxidation in brain tissue,mouse brain,dose-dependent decrease
COc1cc2c(c(OC)c1OC)-c1c(cc(OC)c(OC)c1OC)C[C@](C)(O)[C@@H](C)C2 [Schizandrin],potency of protective action against oxidative stress relative to Schisanhenol,[1],weaker than that of Schisanhenol
"COC1=C(OC)C(=O)C(C/C=C(\C)CC/C=C(\C)CC/C=C(\C)CC/C=C(\C)CC/C=C(\C)CC/C=C(\C)CC/C=C(\C)CC/C=C(\C)CC/C=C(\C)CCC=C(C)C)=C(C)C1=O [coenzyme Q10, Coenzyme Q10]",disease progression,[2],can slow disease progression
COc1cc2c(c(OC)c1OC)-c1c(cc(OC)c(OC)c1OC)C[C@](C)(O)[C@@H](C)C2 [schizandrol A],affinity for dopamine D1 receptors,dopamine D1 receptors,no affinity
same,affinity for dopamine D2 receptors,dopamine D2 receptors,no affinity
same,affinity for serotonin receptors,serotonin receptors,no affinity
same,affinity for alpha 1-adrenergic receptors,[3],no affinity
same,affinity for alpha 2-adrenergic receptors,[4],no affinity
same,dopamine and its metabolite DOPAC (in striatum) and DA (in hypothalamus),[5],Significant elevations
COc1cc2c(c(O)c1OC)-c1c(cc(OC)c(OC)c1OC)C[C@@H](C)[C@@H](C)C2 [Schisanhenol],peroxidative damages of brain mitochondria and membranes,[1],completely inhibited
CC(C)(O)[C@@H]1CC[C@](C)([C@H]2[C@@H](O)C[C@@]3(C)[C@@H]4C[C@H](O[C@@H]5O[C@H](CO)[C@@H](O)[C@H](O)[C@H]5O)[C@H]5C(C)(C)[C@@H](O[C@@H]6OC[C@@H](O)[C@H](O)[C@H]6O)CC[C@@]56C[C@@]46CC[C@]23C)O1 [Astragaloside IV],infarct volume,ischemic brain injury,markedly and significantly reduced
CC1(C)CCC2=C(O1)c1ccccc1C(=O)C2=O [Beta-lapachone],inhibition of HIV-1 viral long terminal repeat-directed gene expression,[6],potent and selective inhibitor
Vitamin E,severity of tardive dyskinesia,[7],appears to be effective
CC(C)=CCC[C@](C)(O[C@@H]1O[C@H](CO)[C@@H](O)[C@H](O)[C@H]1O)[C@H]1CC[C@]2(C)[C@@H]1[C@H](O)C[C@@H]1[C@@]3(C)CC[C@H](O)C(C)(C)[C@@H]3[C@@H](O[C@@H]3O[C@H](CO)[C@@H](O)[C@H](O)[C@H]3O)C[C@]12C [Ginsenoside Rg1],substantia nigra neurons loss,substantia nigra neurons,protect against substantia nigra neurons loss
COc1ccc2cc3[n+](cc2c1OC)CCc1cc2c(cc1-3)OCO2 [Berberine],activity of Berberine alkaloids in the presence of 5'-MHC,[8],strongly potentiated
